These compounds were tested against 5-hydroxytryptamine receptor 6 (Mus musculus, UniProt Q9R1C8).
5-hydroxytryptamine receptor 6, sequence (Q9R1C8 whole entry): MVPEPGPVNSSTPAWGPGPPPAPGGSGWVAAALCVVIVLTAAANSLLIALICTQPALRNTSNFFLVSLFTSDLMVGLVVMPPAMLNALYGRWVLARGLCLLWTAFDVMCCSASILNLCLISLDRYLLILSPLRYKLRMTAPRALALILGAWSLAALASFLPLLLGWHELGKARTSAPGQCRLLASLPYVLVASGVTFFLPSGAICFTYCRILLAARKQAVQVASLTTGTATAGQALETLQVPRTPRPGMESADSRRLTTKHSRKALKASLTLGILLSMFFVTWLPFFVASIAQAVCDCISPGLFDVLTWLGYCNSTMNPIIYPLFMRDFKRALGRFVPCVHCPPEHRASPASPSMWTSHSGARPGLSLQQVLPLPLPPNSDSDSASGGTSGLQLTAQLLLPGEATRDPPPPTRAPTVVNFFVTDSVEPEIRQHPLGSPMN

| Structure (SMILES) | Ki |
| --- | --- |
| Cc1[nH]c2ccc(O)cc2c1CCN | 398 nM |
| CN1CCN2c3ccccc3Cc3ccccc3[C@H]2C1 [MIANSERIN (+)] | 19.9 nM |
| O=C(c1ccc(F)cc1)C1CCN(CCn2c(=O)[nH]c3ccccc3c2=O)CC1 [3-(2-{4-[(4-fluorophenyl)carbonyl]piperidin-1-yl}ethyl)-1,2,3,4-tetrahydroquinazoline-2,4-dione] | 1000 nM |
| CN1CCN(C2=c3ccccc3=Nc3ccc(Cl)cc3N2)CC1 [6-chloro-10-(4-methylpiperazin-1-yl)-2,9-diazatricyclo[9.4.0.0^{3,8}]pentadeca-1,3(8),4,6,10,12,14-heptaene] | 31.6 nM |
| Cn1cc(CCN)c2cc(O)ccc21 [5-HT,omega-N-Me] | 2000 nM |
| CSc1ccc2c(c1)C(N1CCN(C)CC1)Cc1ccccc1S2 (stereo not drawn) [methanesulfonic acid;1-methyl-4-(3-methylsulfanyl-5,6-dihydrobenzo[b][1]benzothiepin-5-yl)piperazine] | 1.99 nM |
| NCCc1c[nH]c2ccc(O)cc12 [[3H]-5-HT] | 39.8 nM |
| CN1CCc2cc(Cl)c(O)cc2[C@@H](c2ccccc2)C1 [SCH 23390,R(+)] | 2510 nM |
